In patent publication US6232089A, “CD23 processing enzyme preparation” (SmithKline Beecham Corporation, priority 1998, dated 2001):

Tests used:
CD23 processing enzyme [1] = assay: Photolabeling of membranes or solubilized membrane proteins containing the CD23 processing enzyme, 12% SDS-PAGE / 2-dimensional gel electrophoresis; format: binding; settings: 2-dimensional gel electrophoresis; 0.1 to 0.3 uM compound 4 or 1 uM compound 3
Description: Compound 4 (Synthetic Example 17), Compound 5 (Synthetic Example 17a), Compound 6 (Synthetic Example 25), and Compound 7 (Synthetic Example 27) can also be used to photolabel membranes or solubilized membrane proteins containing the CD23 processing enzyme, using the same method described for compound 3. Analysis by 12% SDS-PAGE and ECL detection of biotinylated protein, using streptavidin-HRP detects several bands in the molecular weight range 50-65 kDa.
Up to 200 ug of membrane proteins in PBS were solubilized in 0.1 % NP-40 and photolabeled with 0.1 to 0.3 uM compound 4 or 1 uM compound 3 as described for compound 3 above. The sample was then dialyzed vs. 10 mM potassium phosphate pH 7.5, 0.1% NP-40, concentrated in a Centricon 10 (Amicon, Beverly Mass.), then made 8 M in urea, 2% in Triton X-100, 0. 8% in Pharmalyte 3-10 (Pharmacia) and 50 mM in DTT. After electrophoresis in both dimensions, the proteins were blotted to PVDF, and biotinylated proteins detected with streptavidin-HRP as described above. The majority of the minor biotinylated spots observed were in the molecular weight range 50-65 kDa and were acidic proteins with pH in the range 4.5-6.0.

CD23 processing enzyme [2] = assay: Membrane CD23 cleavage activity assay (sCD23 release from plasma membranes of RPMI 8866 cells); format: biochemical, human; settings: membranes; read-out: IC50 for inhibition of CD23 processing (production of sCD23)
Description: Membrane CD23 cleavage activity assay:
Plasma membranes from RPMI 8866 cells, a human Epstein-Barr virus transformed B-cell (Sarfati et al., Immunology 60 (1987) 539-547), or a similar cell line expressing high levels of CD23 are purified using an aqueous extraction method. Cells resuspended in homogenization buffer (20 mM HEPES pH 7.4, 150 mM NaCl, 1.5 mM MgCl2, 1 mM DTT) are broken by N2 cavitation in a Parr bomb and the plasma membrane fraction mixed with other membranes recovered by centrifugation at 10,000×g. The light pellet is resuspended in 0.2 M potassium phosphate, pH 7.2 using 2 ml per 1-3 g wet cells and the nuclear pellet is discarded. The membranes are further fractionated by partitioning between Dextran 500 (6.4% w/w) and polyethylene glycol (PEG) 5000 (6.4% w/w) at 0.25 M sucrose in a total of 16 g per 10-15 mg membrane proteins (Morre and Morre, BioTechniques 7, 946-957 (1989)). The phases are separated by brief centrifugation at 1000×g and the PEG (upper) phase is collected, diluted 3-5 fold with 20 mM potassium phosphate buffer pH 7.4, and centrifuged at 100,000×g to recover membranes in that phase. The pellet is resuspended in phosphate-buffered saline and consists of 3-4 fold enriched plasma membranes as well as some other cell membranes (e.g. lysosomes, Golgi). The membranes are aliquoted and stored at -80° C. Fractionation at 6.6% Dextran/PEG yields plasma membranes enriched 10-fold.
The fractionated membranes are incubated at 37° C. for times up to 4 hours to produce fragments of CD23 which are separated from the membrane after quenching the assay with 5 uM compound 1 by centrifugation at 10,000×g. These CD23 fragments are consistent with those reported (Letellier et al, J Exp. Med. 172, 693-700 (1990)): MW, app 36-37 kDa as determined by 12% sodium dodecylsulfate-polyacrylamide electrophoresis (SDS-PAGE) of N-terminal sequence QKSQ; MW, app 33 kDa with N-terminal sequence LKSQ. Additional bands not sequenced: MW, app 28-29 kDa and a doublet at 25-26 kDa. These are detected by Western blot of the total protein in the incubation using a polyclonal antibody such as the polyclonal anti-CD23 antibody in The Binding Site (Birmingham, UK) enzyme-linked immunoassay (EIA) Bindazyme kit for the determination of soluble CD23. Following removal of the membrane by centrifugation or filtration in 0.2 micron filter plates (Durapore, Millpore), sCD23 can also be determined using the EIA kit from The Binding Site or a similar one utilizing MHM6 anti-CD23 mAb (Rowe et al., Int. J. Cancer, 29, 373-382 (1982)) or another anti-CD23 mAb as the capture antibody in a sandwich EIA. […] Samples were incubated at 37° C. for the varying times, quenched with compound 1, applied to 12% SDS-PAGE, and Western blotting on PVDF (Bio-Rad) membrane performed using standard methodology with a combination of BD4 (prepared as described in Biological example 2) and a polyclonal antibody which recognizes all soluble fragments as the primary antibody. The blot was developed by ECL, scanned using a BioImage system and quantitated using the Visage analysis package.
Inhibition of CD23 processing can also be determined by Western blot or by the 5 EIA (Elisa) method. The amount of soluble CD23 made by 0.5-5 ug membrane protein is measured either by quantitation of the Western blot as described using a Millipore BioImage system, or by EIA and compared to the amount made in the presence of various concentrations of inhibitors. Inhibitors are prepared in solutions of water or dimethylsulfoxide (DMSO) and the final DMSO concentration is not more than 2%. The enzyme activity of CD23 processing is inhibited by 1,10-phenanthroline (1 mM), and not by 1,7-phenanthroline (1 mM), PMSF (1 mM), E-64 (10 uM), pepstatin (10 uM), leupeptin (10 uM), or tosyl-leucylchloroketone (100 uM), and weakly by phosphoramidon (40% inhibition at 100 uM). The enzyme can heretofore best be described as a metalloprotease rather than a serine, cysteine or acid protease. […]

[3] = system: solubilized membrane proteins from BJAB cells; assay: Photolabeling of Superose 12 column fractions of solubilized membrane proteins, SDS-PAGE; format: binding; settings: 1 uM compound 3, long UV, 1 min, Superose 12 fractions, single band
Description: Compound 3 is an inhibitor of CD23 processing in membranes with an IC50 of about 1-3 uM. Compound 3 (the synthesis of which is described in the Synthetic Examples section as Example 9), is [N-[4-N'-Hydroxyamino-2-(R)-2-(2-methylpropyl)succinyl]-S-4-azidophenylalanine-N"-(6-biotinoylaminohexyl)amide]. Compound 3 was prepared for use as a photolabeling agents as follows. [drawing 1]
Column fractions from a Superose 12 column of solubilized membrane proteins from BJAB cells were photolabeled with 1 uM compound 3 using a Sunlit phosphor lamp at long UV for 1 min. […] Active fractions from RPMI 8866 fractionations are similarly photolabeled.
Fractions were concentrated, photolabeled as described, applied to 12% SDS-PAGE, blotted to PVDF and photolabeled material detected with streptavidin-horseradish peroxidase (streptavidin-HRP) using ECL (Amersham) methodology. Fraction "0" indicates the photolabeling observed in an unfractionated sample. The 45 kDa MW marker protein migrated with an elution volume corresponding to fractions 17 or 18. The fraction sizes are not the same as FIG. 7.

CC(C)C[C@H](CC(=O)NO)C(=O)N[C@@H](Cc1ccc(N=[N+]=[N-])cc1)C(=O)NCCCCCCNC(=O)CCCC[C@@H]1SC[C@@H]2NC(=O)N[C@@H]21 [Compound 3, N-[4-N'-Hydroxyamino-2-(R)-2-(2-methylpropyl)succinyl]-S-4-azidophenylalanine-N"-(6-biotinoylaminohexyl)amide]
molecular weight range of majority of minor biotinylated spots (CD23 processing enzyme [1]): 50-65 kDa
pH range of minor biotinylated spots (acidic proteins) (CD23 processing enzyme [1]): 4.5-6.0
IC50 (CD23 processing enzyme [2]): 1000 to 3000 nM
MW, app of photolabeled band [3]: 45 kDa
